In EP3057951B1, “METHYLENE LINKED QUINOLINYL MODULATORS OF ROR-GAMMA-T” (Janssen Pharmaceutica NV, priority 2013, dated 2015):
Read-outs that look alike come from different tables or passages of the source.

What was measured:
[1] = biological target: T1, wild type human RORγt ligand binding domain (RORyt LBD) (Homo sapiens, UniProt P51449); assay: RORγt ThermoFluor assay (thermal shift, binding affinity KD)
T1 construct: His-tag (N); TurboTEV protease cleavage site (ENLYFQG) (N); made in house; host or cells: E. coli (pHIS1, modified pET vector)
T1 sequence (P51449 258-518): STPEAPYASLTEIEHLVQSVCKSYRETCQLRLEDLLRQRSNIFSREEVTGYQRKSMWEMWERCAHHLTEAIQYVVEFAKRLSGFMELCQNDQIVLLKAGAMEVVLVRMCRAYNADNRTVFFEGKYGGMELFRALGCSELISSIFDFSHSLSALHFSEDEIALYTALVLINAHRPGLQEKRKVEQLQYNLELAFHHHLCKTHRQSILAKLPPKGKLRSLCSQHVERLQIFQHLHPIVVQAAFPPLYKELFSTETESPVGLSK

[2] = biological target: T2, wild type human RORγt LBD (Homo sapiens, UniProt P51449); assay: RORγt (LBD) Reporter Assay (GAL4-luciferase, HEK293T cells); type: cell-based; details: for inhibition at 6 µM: HEK-293T, read-out: RORγt (LBD) Reporter Assay, % inhibition @ 6 µM, 6 µM compound concentration; for RORγt (LBD) Reporter Assay, % inhibition @ 6 µM: 6 µM compound concentration
T2 construct: expressed in transfected cells; host or cells: HEK293T
T2 sequence (P51449 258-518): T1 sequence (P51449 258-518)

[3] = HEK293T cells, value after the comma with ∼, > or < could not be included in the average

Question: With `COc1nc2ccc(C(O)(c3cnnn3C)c3cnc(C)n3C)cc2c(C#N)c1Cc1ccc(F)cc1` (racemic) [Example 66a, 6-((1,2-Dimethyl-1H-imidazol-5-yl)(hydroxy)(1-methyl-1H-1,2,3-triazol-5-yl)methyl)-3-(4-fluorobenzyl)-2-methoxyquinoline4-carbonitrile] as the molecule, how does the Kd [1] read?
Answer: Its Kd is 0.00059 µM.

Question: What about the IC50 [2, 3] of the same molecule?
Answer: Its IC50 is 0.0082 µM.

Question: What about the inhibition at 6 µM [2] of the same molecule?
Answer: The inhibition at 6 µM was 90%.

Question: How did the Kd [1] turn out when `COc1nc2ccc(C(O)(c3ccccc3)C3CCN(C(C)=O)CC3)cc2c(Cl)c1Cc1ccc(C(F)(F)F)cc1` (single isomer, unassigned) [Example 69c, 1-(4-((4-Chloro-2-methoxy-3-(4-(trifluoromethyl)benzyl)quinolin-6-yl)(hydroxy)(phenyl)methyl)piperidin-1-yl)ethanone] was run?
Answer: Its Kd is 0.035 µM.

Question: What about the “RORγt (LBD) Reporter Assay, % inhibition @ 6 µM” value (“RORγt … % inhibition @ 6 µM” below) ([2]; 6 µM) of the same molecule?
Answer: The value was 99%.

Question: And the IC50 [2, 3]?
Answer: The IC50 was 0.069 µM.

Question: With `COc1ccc(C(O)(c2cccnc2)c2ccc3nc(OC)c(Cc4ccc(-n5cccn5)cc4)c(Cl)c3c2)cc1OC` (centres unmarked) [Example 159a, (3-(4-(1H-Pyrazol-1-yl)benzyl)-4-chloro-2-methoxyquinolin-6-yl)(3,4-dimethoxyphenyl)(pyridin-3-yl)methanol] as the molecule, how does the Kd [1] read?
Answer: The Kd was 0.029 µM.

Question: What about the IC50 ([2]; HEK293T cells) of the same molecule?
Answer: Its IC50 is 0.12 µM.

Question: And the inhibition at 6 µM ([2]; HEK293T cells)?
Answer: Its inhibition at 6 µM is 107%.

Question: Which results are given for `CC(=O)N1CCC(C(O)(c2ccccc2)c2ccc3nc(Cl)c(Cc4cncnc4)c(OC(F)F)c3c2)CC1` (single isomer, unassigned) [Example 73c, 1-(4-((2-Chloro-4-(difluoromethoxy)-3-(pyrimidin-5-ylmethyl)quinolin-6-yl)(hydroxy)(phenyl)methyl)piperidin-1-yl)ethanone]?
Answer: Kd [1]: 0.48 µM; RORγt (LBD) Reporter Assay, % inhibition @ 6 µM ([2]; 6 µM): 21%; IC50 [2, 3]: > 6 µM

Question: How did the Kd [1] turn out when `CCN(CC)c1nc2ccc(C(O)(c3ccc(Cl)cc3)c3cncn3C)cc2c(C#N)c1Cc1ccc(-n2cccn2)cc1` (single isomer, unassigned) [Example 154c, 3-(4-(1H-pyrazol-1-yl)benzyl)-6-((4-chlorophenyl)(hydroxy)(1-methyl-1H-imidazol-5-yl)methyl)-2-(diethylamino)quinoline4-carbonitrile] was run?
Answer: Its Kd is > 56 µM.

Question: What about the IC50 ([2]; HEK293T cells) of the same molecule?
Answer: Its IC50 is 1 µM.

Question: Which Kd [1] does the source give for `COc1nc2ccc(C(O)(c3ccc(F)cc3)C3CCN(C(C)=O)CC3)cc2c(Cl)c1Cc1ccc(-n2cccn2)cc1` (single isomer, unassigned) [Example 157c, 1-(4-((3-(4-(1H-Pyrazol-1-yl)benzyl)4-chloro-2-methoxyquinolin-6-yl)(4-fluorophenyl)(hydroxy)methyl)piperidin-1-yl)ethanone] here?
Answer: The Kd was 0.11 µM.

Question: What about the “RORγt … % inhibition @ 6 µM” value ([2]; HEK293T cells, 6 µM) of the same molecule?
Answer: The value was 99%.

Question: What about the IC50 ([2]; HEK293T cells) of the same molecule?
Answer: The IC50 was 0.16 µM.

Question: Which results are given for `Cn1cncc1C(O)(c1ccc(C(F)(F)F)nc1)c1ccc2nc(N3CC(O)C3)c(Cc3ccc(-n4cccn4)cc3)c(Cl)c2c1` (single isomer, unassigned) [Example 134c, 1-(4-Chloro-6-{hydroxy(1-methyl-1H-imidazol-5-yl)[6-(trifluoromethyl)pyridin-3-yl]methyl}-3-[4-(1H-pyrazol-1-yl)benzyl]quinolin-2-yl)azetidin-3-ol]?
Answer: Kd [1]: 1.2 µM; RORγt (LBD) Reporter Assay, % inhibition @ 6 µM ([2]; HEK293T cells, 6 µM): 96%; IC50 ([2]; HEK293T cells): 1.1 µM

Question: For `Cc1cc(C(O)(c2ccc(Cl)cc2)c2cncn2C)cc2c(Cl)c(Cc3ccc(-n4cccn4)cc3)c(N3CCC3)nc12` (single isomer, unassigned) [Example 136c, {2-Azetidin-1-yl-4-chloro-8-methyl-3-[4-(1H-pyrazol-1-yl)benzyl]quinolin-6-yl}(4-chlorophenyl)(1-methyl-1H-imidazol-5-yl)methanol], which Kd [1] is on record?
Answer: Its Kd is 0.019 µM.

Question: What about the “RORγt … % inhibition @ 6 µM” value ([2]; HEK293T cells, 6 µM) of the same molecule?
Answer: The value was 97%.

Question: What about the IC50 ([2]; HEK293T cells) of the same molecule?
Answer: The IC50 was 0.14 µM.

Question: For `COc1nc2ccc(C(O)(c3cnnn3C)c3cnc(C)n3C)cc2c(C#N)c1Cc1ccc(C(F)(F)F)nc1` (single isomer, unassigned) [Example 44c, 6-((1,2-Dimethyl-1H-imidazol-5-yl)(hydroxy)(1-methyl-1H-1,2,3-triazol-5-yl)methyl)-2-methoxy-3-((6-(trifluoromethyl)pyridin-3-yl)methyl)quinoline-4-carbonitrile], which Kd [1] is on record?
Answer: Its Kd is 0.009 µM.

Question: And the “RORγt … % inhibition @ 6 µM” value [2]?
Answer: The value was 99%.

Question: What about the IC50 [2, 3] of the same molecule?
Answer: The IC50 was 0.019 µM.
